# ChEMBL document CHEMBL5506025, “Discovery of LLC0424 as a Potent and Selective in Vivo NSD2 PROTAC Degrader” (J Med Chem, 2024)
# Activity calls are given as the source filed them. The rule behind the calls is not given here.
# Assays:
# [1] = system: SEM cells; assay: Cytotoxicity against human SEM cells assessed as inhibition of cell growth at 2 uM measured after 9 days by Celltiter-glo assay; format: functional, cell-based; conditions: time 9.0 day
# [2] = molecular target: T1, Protein cereblon/Histone-lysine N-methyltransferase NSD2 (Homo sapiens) (UniProt O96028+Q96SW2); assay: PROTAC activity at CRBN/NSD2 in human RPMI 8402 cells assessed as induction of NSD2 degradation at 2 uM pretreated with thalidomide for 2 hrs followed by compound addition and measured after 6 to 12 hrs by Western blot analysis; format: cell-based; conditions: time 6-12 hrs
# [3] = molecular target: T2, Protein cereblon/Eukaryotic peptide chain release factor GTP-binding subunit ERF3A (Homo sapiens) (UniProt Q96SW2+P15170); assay: PROTAC activity at CRBN/GSPT1 in human RPMI 8402 cells assessed as decrease in GSPT1 level at 2 uM measured after 12 hrs by TMT-labeled quantitative proteomics assay; format: cell-based
# [4] = molecular target: T1, Protein cereblon/Histone-lysine N-methyltransferase NSD2 (Homo sapiens); assay: PROTAC activity at CRBN/NSD2 in human RPMI 8402 cells assessed as induction of NSD2 degradation at 2 uM pretreated with bortezomib for 2 hrs followed by compound addition and measured after 6 to 12 hrs by Western blot analysis; format: cell-based; conditions: time 6-12 hrs
# [5] = molecular target: T1, Protein cereblon/Histone-lysine N-methyltransferase NSD2 (Homo sapiens); assay: In vivo PROTAC activity at CRBN/NSD2 in SCID mouse xenografted with human 22Rv1 cells assessed as downregulation of NSD2 level at 60 mg/kg, ip for 5 days by Western blot analysis; format: functional, organism-based; conditions: CWR22R, time 5.0 day
# [6] = molecular target: T1, Protein cereblon/Histone-lysine N-methyltransferase NSD2 (Homo sapiens); assay: PROTAC activity at CRBN/NSD2 in human RPMI 8402 cells assessed as decrease in NSD2 level at 2 uM measured after 12 hrs by TMT-labeled quantitative proteomics assay; format: cell-based
# [7] = molecular target: T1, Protein cereblon/Histone-lysine N-methyltransferase NSD2 (Homo sapiens); assay: PROTAC activity at CRBN/NSD2 in human SEM cells assessed as induction of NSD2 degradation at 2 uM incubated for 12 hrs by immunoblot analysis; format: cell-based
# [8] = molecular target: T1, Protein cereblon/Histone-lysine N-methyltransferase NSD2 (Homo sapiens); assay: PROTAC activity at CRBN/NSD2 in human SEM cells assessed as induction of NSD2 degradation at 0.5 to 2 uM measured after 24 hrs by immunoblot analysis; format: cell-based; conditions: dose 0.5-2 µM
# [9] = system: RPMI 8402; assay: Cytotoxicity against human RPMI 8402 cells assessed as inhibition of cell growth at 2 uM measured after 9 days by Celltiter-glo assay; format: functional, cell-based; conditions: time 9.0 day
# [10] = system: RPMI 8402; assay: Inhibition of colony formation in human RPMI 8402 cells at 2 uM administered every three days for 30 days by iodonitrotetrazolium chloride staining based microscopy analysis; format: functional, cell-based; conditions: time 30.0 day
# [11] = molecular target: T1, Protein cereblon/Histone-lysine N-methyltransferase NSD2 (Homo sapiens); assay: PROTAC activity at CRBN/NSD2 in human SEM cells assessed as induction of NSD2 degradation at 2 uM measured after 12 to 24 hrs by immunoblot analysis; format: cell-based; conditions: time 12-24 hrs
# [12] = molecular target: T1, Protein cereblon/Histone-lysine N-methyltransferase NSD2 (Homo sapiens); assay: PROTAC activity at CRBN/NSD2 in human SEM cells assessed as induction of NSD2 degradation incubated for 24 hrs by immunoblot analysis; format: cell-based; conditions: dose 0.001-10 µM
# [13] = molecular target: T2, Protein cereblon/Eukaryotic peptide chain release factor GTP-binding subunit ERF3A (Homo sapiens); assay: PROTAC activity at CRBN/GSPT1 in human SEM cells assessed as decrease in GSPT1 level at 2 uM measured upto 8 hrs by immunoblot analysis; format: cell-based
# [14] = system: SEM cells; assay: Downregulation of MS4A1 gene expression in human SEM cells measured after 14 days by RNA sequencing assay; format: functional, cell-based; conditions: time 14.0 day
# [15] = molecular target: T1, Protein cereblon/Histone-lysine N-methyltransferase NSD2 (Homo sapiens); assay: PROTAC activity at CRBN/NSD2 in human RPMI 8402 cells assessed as induction of NSD2 degradation at 2 uM pretreated with MLN4924 for 2 hrs followed by compound addition and measured after 6 to 12 hrs by Western blot analysis; format: cell-based; conditions: time 6-12 hrs
# [16] = molecular target: T2, Protein cereblon/Eukaryotic peptide chain release factor GTP-binding subunit ERF3A (Homo sapiens); assay: PROTAC activity at CRBN/GSPT1 in human VCaP cells assessed as decrease in GSPT1 level at 2 uM measured upto 8 hrs by immunoblot analysis; format: cell-based
# T2 sequence (P15170 whole entry, looked up): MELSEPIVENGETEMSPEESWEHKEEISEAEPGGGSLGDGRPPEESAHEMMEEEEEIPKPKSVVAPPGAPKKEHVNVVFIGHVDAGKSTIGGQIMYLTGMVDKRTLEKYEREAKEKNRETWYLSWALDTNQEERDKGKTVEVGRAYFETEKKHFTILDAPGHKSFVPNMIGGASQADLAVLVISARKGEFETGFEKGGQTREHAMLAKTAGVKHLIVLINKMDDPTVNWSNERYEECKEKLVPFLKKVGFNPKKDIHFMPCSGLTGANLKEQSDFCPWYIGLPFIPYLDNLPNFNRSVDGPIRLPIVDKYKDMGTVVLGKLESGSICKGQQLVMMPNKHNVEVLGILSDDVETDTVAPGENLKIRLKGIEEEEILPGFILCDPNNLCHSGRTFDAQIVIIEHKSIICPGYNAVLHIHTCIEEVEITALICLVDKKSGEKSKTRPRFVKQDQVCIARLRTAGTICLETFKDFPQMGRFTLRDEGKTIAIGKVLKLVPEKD
# T2 sequence (Q96SW2 whole entry, looked up): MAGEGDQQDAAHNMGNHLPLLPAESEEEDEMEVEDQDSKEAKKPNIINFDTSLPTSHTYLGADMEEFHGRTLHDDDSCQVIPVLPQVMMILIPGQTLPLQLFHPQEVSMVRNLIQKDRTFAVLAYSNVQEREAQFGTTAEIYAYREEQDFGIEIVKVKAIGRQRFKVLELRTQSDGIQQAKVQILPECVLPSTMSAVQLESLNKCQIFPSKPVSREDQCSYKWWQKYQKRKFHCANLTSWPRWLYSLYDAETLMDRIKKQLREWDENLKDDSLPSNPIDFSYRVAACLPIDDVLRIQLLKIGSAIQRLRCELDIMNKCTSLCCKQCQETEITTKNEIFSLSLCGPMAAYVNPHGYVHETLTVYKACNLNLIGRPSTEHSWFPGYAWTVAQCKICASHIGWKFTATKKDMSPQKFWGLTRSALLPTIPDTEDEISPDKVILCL
# T1 sequence (O96028 whole entry, looked up): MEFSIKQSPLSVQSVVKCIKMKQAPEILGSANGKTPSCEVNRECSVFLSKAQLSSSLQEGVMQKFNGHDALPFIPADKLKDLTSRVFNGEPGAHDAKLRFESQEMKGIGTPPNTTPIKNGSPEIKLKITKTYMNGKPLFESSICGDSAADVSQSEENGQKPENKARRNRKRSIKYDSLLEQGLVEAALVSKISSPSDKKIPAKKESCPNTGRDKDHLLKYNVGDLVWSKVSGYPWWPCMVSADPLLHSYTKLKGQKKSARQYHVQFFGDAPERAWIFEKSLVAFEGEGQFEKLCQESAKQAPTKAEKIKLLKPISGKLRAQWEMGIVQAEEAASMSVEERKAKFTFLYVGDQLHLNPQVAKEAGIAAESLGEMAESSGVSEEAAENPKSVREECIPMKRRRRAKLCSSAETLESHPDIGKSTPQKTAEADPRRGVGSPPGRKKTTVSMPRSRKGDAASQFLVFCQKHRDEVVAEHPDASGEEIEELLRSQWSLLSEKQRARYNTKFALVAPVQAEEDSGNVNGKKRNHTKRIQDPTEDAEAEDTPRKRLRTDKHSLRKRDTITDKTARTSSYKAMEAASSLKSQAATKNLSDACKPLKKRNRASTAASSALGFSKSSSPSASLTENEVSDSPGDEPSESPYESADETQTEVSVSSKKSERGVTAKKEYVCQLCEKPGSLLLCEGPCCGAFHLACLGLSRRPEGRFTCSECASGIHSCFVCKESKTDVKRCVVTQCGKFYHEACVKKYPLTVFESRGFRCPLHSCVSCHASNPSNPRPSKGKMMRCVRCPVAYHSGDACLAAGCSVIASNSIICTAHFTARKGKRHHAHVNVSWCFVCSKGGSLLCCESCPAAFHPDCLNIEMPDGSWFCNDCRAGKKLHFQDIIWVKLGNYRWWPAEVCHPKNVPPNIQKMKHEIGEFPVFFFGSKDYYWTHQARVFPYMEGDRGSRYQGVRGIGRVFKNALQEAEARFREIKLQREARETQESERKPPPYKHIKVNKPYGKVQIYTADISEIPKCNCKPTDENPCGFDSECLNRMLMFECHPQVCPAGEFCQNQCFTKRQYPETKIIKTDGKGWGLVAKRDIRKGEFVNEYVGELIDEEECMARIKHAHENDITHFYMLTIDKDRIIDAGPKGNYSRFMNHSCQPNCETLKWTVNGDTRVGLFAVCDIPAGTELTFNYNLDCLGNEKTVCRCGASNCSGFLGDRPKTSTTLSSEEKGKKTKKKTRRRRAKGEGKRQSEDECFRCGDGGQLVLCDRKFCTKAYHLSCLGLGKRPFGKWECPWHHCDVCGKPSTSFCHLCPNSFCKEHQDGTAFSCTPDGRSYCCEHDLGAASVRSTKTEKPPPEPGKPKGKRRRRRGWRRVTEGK
# T1 sequence (Q96SW2 whole entry, looked up): as the sequence (Q96SW2 whole entry, looked up) above
smiles,measurement,setting,value
O=C1CCC(N2C(=O)c3ccc(N4CCC(NC(=O)c5ccc(NC(=O)c6ccc(CN(C(=O)c7ccc8c(c7)OCC(=O)N8)C7CC7)cc6)cc5)CC4)cc3C2=O)C(=O)N1 (stereo unspecified),Activity,[1],Active
same,Activity,[2],inactive
same,Activity,[3],Active
same,Activity,[4],inactive
same,Activity,[5],Active
same,Activity,[6],Active
same,Activity,[7],Active
same,Activity,[8],Active
same,Activity,[9],Active
same,inhibition,[10],Active
same,Activity,[11],Active
same,Activity,[12],Dose-Dependent Effect
same,Activity,[13],inactive
same,Activity,[14],Active
same,Activity,[15],inactive
same,Activity,[16],inactive
